Biological target: T1, M3 muscarinic receptor (Homo sapiens, UniProt P20309)
T1 construct: purchased
Test: Muscarinic receptor radioligand binding assay ([3H]-NMS)
Conditions: cell membranes expressing the human muscarinic receptors, 3 hours incubation, read-out: binding affinity Ki
Protocol: The inhibitory effects of compounds of the present invention at the M3 muscarinic receptor were determined by the following binding assays:
Radioligand binding studies utilising [^3H]-N-methyl scopolamine ([^3H]-NMS) and commercially available cell membranes expressing the human muscarinic receptors (M2 and M3) were used to assess the affinity of muscarinic antagonists for M2 and M3 receptors. Membranes in TRIS buffer were incubated in 96-well plates with [^3H]-NMS and M3 antagonist at various concentrations for 3 hours. Membranes and bound radioligand were then harvested by filtration and allowed to dry overnight. Scintillation fluid was then added and the bound radioligand counted using a Can berra Packard Topcount scintillation counter

T1 sequence (P20309 whole entry): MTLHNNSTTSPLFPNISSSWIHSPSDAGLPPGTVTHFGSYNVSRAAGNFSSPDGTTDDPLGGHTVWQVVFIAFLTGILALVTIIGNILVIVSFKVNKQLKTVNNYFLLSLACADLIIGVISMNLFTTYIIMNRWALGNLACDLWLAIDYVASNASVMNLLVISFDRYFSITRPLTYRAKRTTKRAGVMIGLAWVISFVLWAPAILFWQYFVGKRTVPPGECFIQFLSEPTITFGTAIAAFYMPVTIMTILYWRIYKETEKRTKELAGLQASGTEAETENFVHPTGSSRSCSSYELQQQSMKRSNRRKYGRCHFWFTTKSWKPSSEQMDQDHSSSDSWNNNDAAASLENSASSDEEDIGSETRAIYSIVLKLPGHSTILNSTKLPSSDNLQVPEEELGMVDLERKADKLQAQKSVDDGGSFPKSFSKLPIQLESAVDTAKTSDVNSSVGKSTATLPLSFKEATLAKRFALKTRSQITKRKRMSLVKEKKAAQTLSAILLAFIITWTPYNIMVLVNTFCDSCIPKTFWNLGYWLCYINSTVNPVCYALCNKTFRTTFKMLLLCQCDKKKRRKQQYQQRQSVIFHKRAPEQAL

C[N+](C)(CCCc1ccccc1)C1CC2CCC1C2OCc1ccccc1 [Example 6, Anti (1S, 2S) (7-benzyloxybi-cyclo[2.2.1]hept-2-yl)-dimethyl-(3-phenyl-propyl)-ammonium bromide]
Ki: < 0.1 µM
